Measured values as given in patent US9567333B2, “Triazolopyridyl compounds as aldosterone synthase inhibitors” (Merck Sharp & Dohme Corp., priority 2011, dated 2017).

Key:
human CYP11B2 = human CYP11B2 (Homo sapiens (Human), UniProt P19099); assay: V79-Human-CYP11B2 cell assay; type: cell-based; conditions: V79 cells stably expressing human CYP11B2; 125 nM 11-deoxycorticosterone substrate; aldosterone by HTRF
Procedure: (§1) Methods for V79-Human-CYP11B2 and V79-Human-CYP11B1 Assays: V79 cell lines stably expressing the either the human CYP11B2 or the human CYP11B1 enzyme were generated using a standard transfection protocol. V79 cells were transfected with plasmids pTriEx3-Hygro-hCyp11B2 or pTriEx3-Hygro-hCyp11B1 using Lipofectamine2000 reagent. V79 cells that stably express the human CYP11B2 or human CYP11B1 enzyme were selected for and maintained in DMEM supplemented with 10% FBS and 400 µg/mL hygromycin for ˜2 weeks. Single cell clones were generated by infinite dilution in DMEM supplemented with 10% FBS and 400 µg/mL hygromycin until single colonies were obtained. Clones V79-hCYP11B2-CLE9 and V79-hCYP11B1-8CL7, were determined to produce the most aldosterone and cortisol, respectively, and were selected for inhibitor screening. For testing of inhibitors, cells were harvested at 80% confluency with 0.05% Trypsan-EDTA, washed once in PBS, and reconstituted in DMEM+0.1% BSA media at a cell concentration of 600,000 cells/mL for the CYP11B2 assay and 280,000 cells/ml for the CYP11B1 assay. 25 μL of cells were added to a 384 well tissue culture treated plate and mixed with 0.3 μL of inhibitor or DMSO (1% final DMSO concentration) for 1 hour at 37° C., 5% CO2. After pre-incubation with inhibitor, the reaction was initiated by adding 5 μL of substrate (final concentration of 125 nM 11-deoxycorticosterone for the CYP11B2 assay or 250 nM 11-deoxycortisol for the CYP11B1 assay). The reaction was carried out for 3 hours at 37° C., 5% CO2 and was stopped by harvesting the supernatants. The amount of product in the supernatant (aldosterone for CYP11B2 assay and cortisol for the CYP11B1 assay) was measured using HTRF-based assay kit (Aldosterone HTRF-CisBio #64ALDPEB, Cortisol HTRF-CisBio #63IDC002-CORT). IC50s for the inhibitor were determined by plotting the amount of product formed against the concentration of inhibitor using sigmoidal dose-response curve (variable slope) fit in GraphPad.

human CYP11B1 = human CYP11B1 (Homo sapiens (Human), UniProt P15538); assay: V79-Human-CYP11B1 cell assay; type: cell-based; conditions: V79 cells stably expressing human CYP11B1; 250 nM 11-deoxycortisol substrate; cortisol by HTRF
Sequence of human CYP11B1 (P15538 25-503): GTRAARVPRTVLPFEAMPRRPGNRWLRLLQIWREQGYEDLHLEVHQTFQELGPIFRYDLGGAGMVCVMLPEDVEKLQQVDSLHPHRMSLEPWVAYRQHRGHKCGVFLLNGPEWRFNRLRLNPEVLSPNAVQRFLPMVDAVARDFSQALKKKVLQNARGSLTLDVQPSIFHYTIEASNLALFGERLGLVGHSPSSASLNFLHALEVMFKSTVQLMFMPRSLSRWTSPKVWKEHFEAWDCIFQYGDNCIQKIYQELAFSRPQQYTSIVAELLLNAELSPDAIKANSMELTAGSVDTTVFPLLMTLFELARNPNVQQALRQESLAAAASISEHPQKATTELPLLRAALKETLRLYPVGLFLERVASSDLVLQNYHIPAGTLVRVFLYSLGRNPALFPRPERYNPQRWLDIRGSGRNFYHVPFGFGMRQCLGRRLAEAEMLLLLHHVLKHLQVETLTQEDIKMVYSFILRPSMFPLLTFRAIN
Procedure: as §1

Sequence of human CYP11B2 (P19099 25-503): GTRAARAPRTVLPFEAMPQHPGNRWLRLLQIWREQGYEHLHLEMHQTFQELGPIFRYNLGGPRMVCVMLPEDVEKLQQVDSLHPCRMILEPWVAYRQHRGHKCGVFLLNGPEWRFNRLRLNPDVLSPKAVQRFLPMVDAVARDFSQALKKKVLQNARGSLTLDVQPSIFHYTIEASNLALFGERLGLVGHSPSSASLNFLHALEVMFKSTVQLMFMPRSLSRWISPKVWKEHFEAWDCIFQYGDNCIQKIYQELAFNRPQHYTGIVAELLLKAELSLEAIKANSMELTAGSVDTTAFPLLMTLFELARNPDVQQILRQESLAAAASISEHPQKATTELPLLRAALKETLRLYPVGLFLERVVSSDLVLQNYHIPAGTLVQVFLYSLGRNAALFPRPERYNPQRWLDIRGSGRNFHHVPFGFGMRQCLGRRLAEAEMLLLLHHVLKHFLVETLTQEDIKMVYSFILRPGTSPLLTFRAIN

| Compound | IC50 (human CYP11B2) | IC50 (human CYP11B1) |
| --- | --- | --- |
| c1ccc2c(-c3nc4ccccn4n3)cncc2c1 [Example 5, 4-([1,2,4]triazolo[1,5-a]pyridin-2-yl)isoquinoline] | 138 nM | > 8330 nM |
| Clc1cccn2nc(-c3cncc4ccccc34)nc12 [Example 7, 4-(8-chloro-[1,2,4]triazolo[1,5-a]pyridin-2-yl)isoquinoline] | 171 nM | > 8330 nM |
| CC(C)(O)c1cncc(-c2nc3ccc(F)cn3n2)c1 [Example 12, 2-(5-(6-fluoro-[1,2,4]triazolo[1,5-a]pyridin-2-yl)pyridin-3-yl)propan-2-ol] | 1070 nM | > 8330 nM |
| Cc1cccc2nc(-c3cncc(Br)c3)nn12 [Example 13, 2-(5-bromopyridin-3-yl)-5-methyl-[1,2,4] triazolo[1,5-a]pyridine] | 884 nM | > 8330 nM |
| Fc1cc(F)c2nc(-c3cncc4ccccc34)nn2c1 [Example 18, 4-(6,8-difluoro-[1,2,4]triazolo[1,5-a]pyridin-2-yl)isoquinoline] | 126 nM | > 8330 nM |
| Fc1ccn2nc(-c3cncc4ccccc34)nc2c1 [Example 20, 4-(7-fluoro-[1,2,4]triazolo[1,5-a]pyridin-2-yl)isoquinoline] | 22 nM | 1080 nM |
| Fc1ccc2nc(-c3cncc4ccccc34)nn2c1 [Example 21, 4-(6-fluoro-[1,2,4]triazolo[1,5-a]pyridin-2-yl)isoquinoline] | 46 nM | 2150 nM |
